Patent publication US20070232601A1, “Vla-4 Inhibitor” (priority 2004, published 2007)
Marks after values point to notes of the source that are not given here.

What was measured:
[1] = biological target: T1, hα4 and β1 integrins (VLA-4) (Homo sapiens, UniProt P05556+P13612); assay: In vitro evaluation: inhibition of binding of CHO cells expressing hα4 and β1 integrins to Eu3+-hVCAM-1 D1D7-IgG; conditions: ligand Eu3+-hVCAM-1 D1D7-IgG 2 nM, Ki calculated from IC50
T1 construct: expressed in transfected cells; host or cells: CHO cells
T1 sequence (P13612 34-1032): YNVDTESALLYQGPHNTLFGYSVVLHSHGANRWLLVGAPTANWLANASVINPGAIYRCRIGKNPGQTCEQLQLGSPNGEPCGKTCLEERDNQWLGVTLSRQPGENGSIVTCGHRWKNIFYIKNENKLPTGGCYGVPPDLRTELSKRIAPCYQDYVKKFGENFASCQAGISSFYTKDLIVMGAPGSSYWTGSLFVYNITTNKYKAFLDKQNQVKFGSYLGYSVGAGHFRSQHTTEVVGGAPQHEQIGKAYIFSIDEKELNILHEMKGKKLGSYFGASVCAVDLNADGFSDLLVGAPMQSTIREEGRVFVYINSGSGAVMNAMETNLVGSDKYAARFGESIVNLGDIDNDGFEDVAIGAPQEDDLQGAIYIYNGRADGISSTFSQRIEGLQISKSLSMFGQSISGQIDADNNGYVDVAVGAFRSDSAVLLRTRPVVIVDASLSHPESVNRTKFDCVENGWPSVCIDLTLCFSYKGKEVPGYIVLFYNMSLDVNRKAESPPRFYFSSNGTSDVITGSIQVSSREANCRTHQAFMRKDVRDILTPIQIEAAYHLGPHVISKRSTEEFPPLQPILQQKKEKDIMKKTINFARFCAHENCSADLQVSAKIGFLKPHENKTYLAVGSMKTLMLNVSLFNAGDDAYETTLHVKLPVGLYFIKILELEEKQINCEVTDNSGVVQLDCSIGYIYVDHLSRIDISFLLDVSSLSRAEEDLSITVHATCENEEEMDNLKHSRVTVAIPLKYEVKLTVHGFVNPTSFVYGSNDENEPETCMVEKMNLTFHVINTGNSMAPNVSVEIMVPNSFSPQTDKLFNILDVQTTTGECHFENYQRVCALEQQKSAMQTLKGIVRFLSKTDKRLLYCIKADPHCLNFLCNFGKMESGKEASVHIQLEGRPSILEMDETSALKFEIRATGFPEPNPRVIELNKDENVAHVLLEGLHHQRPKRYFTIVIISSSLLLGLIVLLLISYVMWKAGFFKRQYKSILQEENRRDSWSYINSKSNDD
T1 sequence (P05556 21-798): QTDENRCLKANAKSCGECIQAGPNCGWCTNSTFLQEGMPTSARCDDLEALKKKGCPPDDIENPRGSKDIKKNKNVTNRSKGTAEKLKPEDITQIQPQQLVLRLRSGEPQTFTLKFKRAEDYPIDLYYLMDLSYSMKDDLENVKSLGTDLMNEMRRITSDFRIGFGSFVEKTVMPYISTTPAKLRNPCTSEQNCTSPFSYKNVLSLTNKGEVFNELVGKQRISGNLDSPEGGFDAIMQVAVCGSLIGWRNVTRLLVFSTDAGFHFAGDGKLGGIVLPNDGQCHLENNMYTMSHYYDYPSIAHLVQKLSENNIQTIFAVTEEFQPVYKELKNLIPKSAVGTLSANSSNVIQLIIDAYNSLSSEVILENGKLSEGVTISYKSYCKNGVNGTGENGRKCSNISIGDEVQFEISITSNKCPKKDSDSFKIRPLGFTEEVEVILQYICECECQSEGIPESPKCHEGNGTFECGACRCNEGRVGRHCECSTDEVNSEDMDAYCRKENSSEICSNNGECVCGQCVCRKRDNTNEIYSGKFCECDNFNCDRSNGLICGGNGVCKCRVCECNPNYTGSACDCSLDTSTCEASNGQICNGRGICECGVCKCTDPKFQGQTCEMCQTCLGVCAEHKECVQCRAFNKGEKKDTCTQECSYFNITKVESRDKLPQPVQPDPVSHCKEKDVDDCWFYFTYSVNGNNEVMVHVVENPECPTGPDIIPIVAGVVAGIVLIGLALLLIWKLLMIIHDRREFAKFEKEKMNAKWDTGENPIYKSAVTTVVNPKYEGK
How it was run: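 CHO cells stably expressing hα4β1 were cultured 2 days, then incubated 1 h at room temperature with Eu3+-hVCAM-1 D1D7-IgG (added as 2 nM solution) and compound in HEPES pH 7.5 with Ca2+, Mg2+ and 4 mM Mn2+, ± 6% human serum albumin. Bound europium was read by time-resolved fluorescence; IC50 was converted to Ki using Scatchard-derived Kd.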

eosinophils in BALF = assay: Ascaris active sensitization-induced mouse eosinophil infiltration test; assay type: in vivo; conditions: test substance orally administered two times per day, BALF 48 hours after inducement; for Inhibition rate: vs Ascaris-induced group
Method: Ascaris (Ascaris suum Antigen in pigs) active sensitization-induced mouse eosinophil infiltration test:
It has been reported that cell infiltration of eosinophil is induced by inducing Ascaris active sensitization {Int. Arch. Immunol., 108, 11-18, (1995)}. In this evaluation method, a test compound was evaluated. A test substance was orally administered two times per day, the total count of cells and the count of eosinophils in BALF 48 hours after inducement were calculated, and the effect was determined by comparing with a non-test substance administered group.
Results of mouse eosinophil infiltration test ^1 anti-VLA-4 antibody, two times/1 day s.c. administration; **p<0.01: vs D, cont by student's t-test

[2] = Intracorporeal kinetics and oral absorbing property test (dog, oral cassette); assay type: in vivo; conditions: orally administered, 0.5 mg/kg cassette
Method: Intracorporeal Kinetics and Oral Absorbing Property Test: A pharmacokinetic parameter when a test substance was orally administered to a dog by 0.5 mg/kg cassette was as follows.

[3] = Dispersibility test in Japanese Pharmacopoeia First and Second Solution; assay type: physicochemical; conditions: for Dispersibility in Japanese Pharmacopoeia First Solution: JP1, pH 1.2; for Dispersibility in Japanese Pharmacopoeia Second Solution: JP2, pH 6.8
Method: Dispersibility of a test substance in Japanese Pharmacopoeia First Solution (JP1, pH 1.2) and Japanese Pharmacopoeia Second Solution (JP2, pH 6.8) was evaluated.

| Ki [1] | Cltot (apparent plasma clearance) [2] | AUC (total area under the plasma concentration versus time curve) ([2]; LC/MS/MS) | Dispersibility in Japanese Pharmacopoeia First Solution [3] | Dispersibility in Japanese Pharmacopoeia Second Solution [3] | SMILES | Average total eosinophil count (eosinophils in BALF) | Inhibition rate (eosinophils in BALF) |
| --- | --- | --- | --- | --- | --- | --- | --- |
| 1.3 nM | 1.23 mL/min/kg | 7040 ng·h/mL | 33 µg/mL | >2000 µg/mL | CO[C@H]1C[C@@H](c2ncc(CCC(=O)O)s2)N(C(=O)Cc2cc(Cl)c(NC(=O)c3cn(C)c4ccccc34)cc2Cl)C1 [Example 1, 3-[2-[1-[2,5-Dichloro-4-(1-methyl-3-indolylcarbonylamino)phenylacetyl]-(4S)-methoxy-(2S)-pyrrolidinyl]-5-thiazolyl]propionic acid] | 1.52 ×10^5 | 57** % |
| 1.6 nM |  |  | >2000 µg/mL | 570 µg/mL | Cn1cc(C(=O)Nc2cc(Cl)c(CC(=O)N3C[C@@H](N4CCCCC4)C[C@H]3c3ncc(CCC(=O)O)s3)cc2Cl)c2ccccc21 [Example 46, 3-[2-[1-[2,5-Dichloro-4-(1-methyl-3-indolylcarbonylamino)phenylacetyl]-(4S=)=1-piperidinyl-(2S)-pyrrolidinyl]-5-thiazolyl]propionic acid] | 1.44 ×10^5 | 53** % |
